Reference: article PMC10305181, “A VEGFB-Based Peptidomimetic Inhibits VEGFR2-Mediated PI3K/Akt/mTOR and PLCγ/ERK Signaling and Elicits Apoptotic, Antiangiogenic, and Antitumor Activities” (Pharmaceuticals, 2023)
Bridge positions count the residues as written; N and C are the ends. Peptide text beside a SMILES is read from it.

Key:
[1] = test system: HUVECs; test: TUNEL assay, HUVECs; type: cell-based, human; details: 0.40 μM, n = 3, p < 0.0001
From the text: (§1) Periodic boundary conditions were used, and bonds were restrained by applying the LINCS algorithm to their equilibrium position. Initial structures were solvated with three-point model water molecules in a cubic box of 1.0 nm to fully cover the protein system in water, following periodic boundary conditions (PBC). The produced system for each peptide was neutralized through the “genion tool” plugin of the GROMACS package by adding ions Na+ and Cl−. Then, the system was minimized for 50000 iterations using the steepest descent (SD) algorithm and using velocity rescaling (modiﬁed Berendsen) temperature coupling and Parrinello-Rahman pressure coupling methods, simulated under an isothermal-isobaric ensemble (NPT) for 5 ns at a constant temperature, the pressure of 300 K, and 1 atm, respectively. The NVT and NPT equilibration was carried out for 50000 steps. The minimization and equilibration procedures were executed, and finally, one system of the peptide was subjected to a 200 ns production run of MD simulations utilizing 2 fs as the time step and coordinates of all atoms were recorded in the form of .trr GROMACS trajectory ﬁle every 10 ps.
(§2) 2 × 10^3 HUVE or 4T1 cells were cultured in DMEM and RPMI-1640 media, respectively, supplemented with 10% (v/v) FBS overnight. Then, the cells were incubated in the media supplemented with 5% FBS, with PBS or C-VGB3 (0.40 μM). […]

[2] = test system: 4T1 cells; test: TUNEL assay, 4T1 cells; type: cell-based, murine; details: 0.40 μM, n = 3, p = 0.0002
From the text: as §1, §2

[3] = test system: signaling proteins in HUVECs; test: Western blot analysis, HUVECs; type: cell-based, human; details: 0.40 μM
Experimental: Next, to explore the mechanisms of the antiangiogenic property of C-VGB3, canonical signaling pathways mediated by VEGFR2 were assessed in HUVECs after 24 h incubation with C-VGB3 (0.40 μM). The binding of VEGF to VEGFR2 causes autophosphorylation of its tyrosine kinase domain and increases the receptor′s expression level on the cell surface. Therefore, we evaluated the ability of C-VGB3 to suppress the levels of constitutive and phosphorylated VEGFR2 in HUVECs.
The levels of signaling proteins were investigated by the Western blot assay. 4T1 and HUVE cells stimulated by VEGF (20 ng·mL^−1) were treated with (0.40 μM) or without C-VGB3 (treatment and control groups, respectively) after starvation in a serum-free medium for 24 h. After washing with PBS buffer twice, the cells were treated with RIPA lysis buffer containing (Sigma, St. Louis, MO, USA). Bradford′s test was performed to estimate the protein concentration. Equal amounts of total protein were electrophoresed on a 10% SDS-polyacrylamide gel, separated, and then transferred to a nitrocellulose membrane. Nitrocellulose was soaked in a blocking buffer containing 5% dry milk, Tris-buffered saline, and Tween 20 (TBST) for 1 h at ambient temperature. The nitrocellulose membrane was then washed with wash buffer and treated with antibodies against VEGFR2 p-VEGFR2, AKT, p-AKT, PI3K, mTOR, p-mTOR, NF-κB, p-NFκB, P53, MDM2, Bax, Bcl2, Bid, Bim, Apaf-1, cytochrome c, caspase-9, Fas (CD95), DR4 (CD261), DR5 (CD262), caspase3, caspase7, caspase8, PARP1, ERK 1/2, p-ERK1/2, Ras, Raf, Cdk4, GSK-3β, cyclin D1, vimentin, N-cadherin, E-cadherin, FAK, p-FAK, paxillin, p-paxillin, and β-actin overnight at 4 °C. The next steps were performed as described previously. Because molecular weight ranges of target signaling proteins are very close, individual gels were run for separate signaling proteins (Figure S7).

CC(C)C[C@@H]1NC(=O)CNC(=O)[C@H](CC(=O)O)NC(=O)[C@H](CC(=O)O)NC(=O)[C@@H]2CCCN2C(=O)[C@@H]2CCCN2C(=O)[C@H](CCCNC(=N)N)NC(=O)[C@@H](NC(=O)[C@@H](N)CCC(=O)O)CSSC[C@@H](C(=O)O)NC1=O [C-VGB3] (H-ECRPPDDGLC-OH; disulfide 2-10)
TUNEL fluorescent labeling [1]: fluorescent-labeled more than control cells | TUNEL fluorescent labeling [2]: fluorescent-labeled more than control cells | AKT level ([3]; 24 h, p < 0.0001): markedly reduced | CDK4 level ([3]; 24 h, p < 0.0001): decreased | RAS level ([3]; 24 h, p < 0.0001): decreased | mTOR total expression ([3]; 24 h, p < 0.0001): strongly suppressed | p-AKT level ([3]; 24 h, p < 0.0001): markedly reduced | p-VEGFR2 formation ([3]; 24 h, p < 0.0001): markedly inhibited | CyclinD1 level ([3]; 24 h, p = 0.0001): decreased | p-ERK1/2 level ([3]; 24 h, p = 0.0001): decreased | GSK3 expression ([3]; 24 h, p = 0.001): increased expression | NF-κB phosphorylation ([3]; 24 h, p = 0.001): suppressed | PI3K expression level ([3]; 24 h, p = 0.001): decreased | RAF level ([3]; 24 h, p = 0.001): decreased | VEGFR2 level ([3]; 24 h, p = 0.001): markedly inhibited | mTOR phosphorylation ([3]; 24 h, p = 0.001): strongly suppressed | ERK1/2 level ([3]; 24 h, p = 0.02): decreased | NF-κB expression ([3]; 24 h, p = 0.02): decreased | increase in cleaved PARP1 ([3]; HUVECs (first of 'respectively'), p < 0.0001): 3.50 fold | increase in Bax/Bcl2 ratio ([3]; HUVECs): approximately 3.35 fold | increased level of cleaved caspase-3 ([3]; HUVECs): 3.8 times | increased level of cleaved caspase-7 ([3]; HUVECs): 3.3 times | increased level of cleaved caspase-9 ([3]; HUVECs): 1.4 times | Bid expression level ([3]; HUVECs, p < 0.0001): increased | Apaf1 ([3]; HUVECs, p = 0.0001): increase | Bax level ([3]; HUVECs, p = 0.0001): increased | Bcl2 expression ([3]; HUVECs, p = 0.0001): decrease | P53 level ([3]; HUVECs, p = 0.0001): enormously increased | Bim level ([3]; HUVECs, p = 0.001): increased | DR4 level ([3]; HUVECs, p = 0.001): increase | MDM2 level ([3]; HUVECs, p = 0.001): markedly decreased | DR5 level ([3]; HUVECs, p = 0.02): increase | Fas expression ([3]; HUVECs, p = 0.02): slightly increased | cytochrome c ([3]; HUVECs, p = 0.02): increase
